# Reference: patent US20070202192A1, “Fungical Mixtures For Controlling Rice Pathogens” (BASF AKTIENGESELLSCHAFT, priority 2003, published 2007)
# Counter-ions that a name gives are not always drawn.
# Test system: Cochliobolus miyabeanus
# Experiment: activity against brown spot of rice caused by Cochliobolus miyabeanus, protective application
# Type: in vivo
# Conditions: rice seedlings cultivar Tai-Nong 67, protective application, 6 days after inoculation
# Experimental: 1% by weight of the emulsifier Uniperol® EL (wetting agent having emulsifying and dispersant action based on ethoxylated alkylphenols) was added to this solution, and the mixture was diluted with water to the desired concentration.
# Use example—activity against brown spot of rice caused by Cochliobolus miyabeanus, protective application […]
# The next day, the plants were inoculated with an aqueous spore suspension of Cochliobolus miyabeanus. The test plants were then placed in climatized chambers at 22-24° C. and 95-99% relative atmospheric humidity for 6 days. The extent of the development of the infection on the leaves was then determined visually.
# Evaluation was carried out by determining the percentage of infected leaf area. These percentages were converted into efficacies.
# The efficacy (E) is calculated as follows using Abbot's formula: E=(1−α/β)·100 α corresponds to the fungicidal infection of the treated plants in % and β corresponds to the fungicidal infection of the untreated (control) plants in % An efficacy of 0 means that the infection level of the treated plants corresponds to that of the untreated control plants; an efficacy of 100 means that the treated plants are not infected.
SMILES,Efficacy in % of the untreated control (4 ppm active compound in the spray liquor) [%],Efficacy in % of the untreated control (1 ppm active compound in the spray liquor) [%],Efficacy in % of the untreated control (16 ppm active compound in the spray liquor) [%]
"CC1CCN(c2c(-c3c(F)cc(F)cc3F)c(Cl)nc3ncnn23)CC1 [I, 5-chloro-7-(4-methylpiperidin-1-yl)-6-(2,4,6-trifluorophenyl)-[1,2,4]triazolo[1,5-a]pyrimidine]",33,–,–
"CCO[PH](=O)O [IIb (fosetyl-Al), ethyl phosphonate aluminum salt]",–,0,0
